# Legend:
# Assay type in all cases: biochemical
# JAK3 = target: T1, JAK3 (Homo sapiens, UniProt P52333); experiment: PanQinase kinase panel: JAK3; details: for inhibition at 1 µM: read-out: INHIBITORY EFFECT @ 1 uM: JAK3
# T1 construct: purchased Reaction Biology Europe GmbH
# T1 sequence (P52333 1-1124): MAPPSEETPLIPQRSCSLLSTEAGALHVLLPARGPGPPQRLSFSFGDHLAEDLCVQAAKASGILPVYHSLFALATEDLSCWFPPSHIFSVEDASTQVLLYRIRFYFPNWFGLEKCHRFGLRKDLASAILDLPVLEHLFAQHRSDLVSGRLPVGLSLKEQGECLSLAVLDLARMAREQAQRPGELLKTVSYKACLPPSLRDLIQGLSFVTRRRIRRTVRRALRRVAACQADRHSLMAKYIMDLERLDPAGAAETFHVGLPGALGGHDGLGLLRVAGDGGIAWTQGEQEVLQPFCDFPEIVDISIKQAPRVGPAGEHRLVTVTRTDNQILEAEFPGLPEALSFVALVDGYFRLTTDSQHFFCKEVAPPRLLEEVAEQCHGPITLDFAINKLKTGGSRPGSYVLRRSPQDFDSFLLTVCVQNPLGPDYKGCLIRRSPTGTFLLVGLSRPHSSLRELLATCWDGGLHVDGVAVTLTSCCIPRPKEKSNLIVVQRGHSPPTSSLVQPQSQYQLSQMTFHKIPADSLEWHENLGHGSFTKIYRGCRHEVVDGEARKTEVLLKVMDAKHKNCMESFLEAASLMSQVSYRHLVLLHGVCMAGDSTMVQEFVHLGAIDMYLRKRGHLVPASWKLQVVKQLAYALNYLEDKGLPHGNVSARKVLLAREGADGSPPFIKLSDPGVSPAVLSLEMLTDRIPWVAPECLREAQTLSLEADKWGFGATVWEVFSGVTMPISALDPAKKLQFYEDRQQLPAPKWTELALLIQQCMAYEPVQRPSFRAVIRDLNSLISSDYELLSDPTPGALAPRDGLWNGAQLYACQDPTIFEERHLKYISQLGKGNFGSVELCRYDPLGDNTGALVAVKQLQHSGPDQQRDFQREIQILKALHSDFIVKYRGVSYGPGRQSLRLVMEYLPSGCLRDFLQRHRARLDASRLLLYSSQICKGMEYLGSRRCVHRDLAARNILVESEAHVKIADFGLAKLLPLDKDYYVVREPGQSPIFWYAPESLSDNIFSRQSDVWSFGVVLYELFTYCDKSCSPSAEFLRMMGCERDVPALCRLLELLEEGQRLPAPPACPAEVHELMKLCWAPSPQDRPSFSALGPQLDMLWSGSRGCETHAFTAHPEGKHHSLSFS
# Method: (§1) Screening procedures were performed in accordance with the company's on-line protocol [accessed on-line Mar.
# (§2) For each kinase, the median value of the cpm of three wells was defined as “low control” (n=3). This value reflects unspecific binding of radioactivity to the plate in the absence of a protein kinase but in the presence of the substrate. Additionally, for each kinase the median value of the cpm of three other wells was taken as the “high control,” i.e. full activity in the absence of any inhibitor (n=3). The difference between high and low control of each enzyme was taken as 100% activity.
# As part of the data evaluation the low control of each kinase was subtracted from the high control value as well as from their corresponding “compound values”.
# FRK = target: T2, FRK (Homo sapiens, UniProt P42685); experiment: PanQinase kinase panel: FRK; details: read-out: INHIBITORY EFFECT @ 1 uM: FRK
# T2 construct: purchased Reaction Biology Europe GmbH
# Method: as §1, §2
# (§3) As part of the data evaluation the low control of each kinase was subtracted from the high control value as well as from their corresponding “compound values”. The residual activity (in %) for each compound well was calculated by using the following formula: Res. Activity (%)=100×[(signal of compound−low control)/(high control−low control)].
# VEGFR2 = target: T3, VEGFR2 (Homo sapiens, UniProt P35968); experiment: PanQinase kinase panel: VEGFR2; details: read-out: INHIBITORY EFFECT @ 1 uM: VEGFR2
# T3 construct: purchased Reaction Biology Europe GmbH
# Method: as §1, §2, §3
# ITK = target: T4, ITK (Homo sapiens, UniProt Q08881); experiment: PanQinase kinase panel: ITK; details: read-out: INHIBITORY EFFECT @ 1 uM: ITK
# T4 construct: purchased Reaction Biology Europe GmbH
# T4 sequence (Q08881 1-620): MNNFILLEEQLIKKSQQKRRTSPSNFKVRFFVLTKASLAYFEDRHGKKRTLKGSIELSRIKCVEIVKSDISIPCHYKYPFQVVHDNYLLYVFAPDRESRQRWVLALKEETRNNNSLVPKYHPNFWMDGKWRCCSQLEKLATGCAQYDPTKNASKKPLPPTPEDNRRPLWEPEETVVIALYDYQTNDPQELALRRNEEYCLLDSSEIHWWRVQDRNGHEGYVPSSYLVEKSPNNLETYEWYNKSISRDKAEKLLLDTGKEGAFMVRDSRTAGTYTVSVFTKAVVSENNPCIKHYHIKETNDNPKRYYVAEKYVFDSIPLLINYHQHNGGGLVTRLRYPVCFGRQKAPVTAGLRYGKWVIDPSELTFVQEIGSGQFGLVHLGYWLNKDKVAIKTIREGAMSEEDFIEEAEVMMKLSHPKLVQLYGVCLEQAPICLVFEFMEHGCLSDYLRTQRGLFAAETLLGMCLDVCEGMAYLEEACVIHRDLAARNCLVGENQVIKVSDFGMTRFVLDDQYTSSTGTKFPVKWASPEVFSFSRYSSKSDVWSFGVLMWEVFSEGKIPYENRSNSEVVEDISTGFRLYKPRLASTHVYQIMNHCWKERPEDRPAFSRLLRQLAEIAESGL
# Method: as §1, §2, §3
# MEKK3 = target: T5, MEKK3 (Homo sapiens, UniProt Q99759); experiment: PanQinase kinase panel: MEKK3; details: read-out: INHIBITORY EFFECT @ 1 uM: MEKK3
# T5 construct: purchased Reaction Biology Europe GmbH
# T5 sequence (Q99759 1-626): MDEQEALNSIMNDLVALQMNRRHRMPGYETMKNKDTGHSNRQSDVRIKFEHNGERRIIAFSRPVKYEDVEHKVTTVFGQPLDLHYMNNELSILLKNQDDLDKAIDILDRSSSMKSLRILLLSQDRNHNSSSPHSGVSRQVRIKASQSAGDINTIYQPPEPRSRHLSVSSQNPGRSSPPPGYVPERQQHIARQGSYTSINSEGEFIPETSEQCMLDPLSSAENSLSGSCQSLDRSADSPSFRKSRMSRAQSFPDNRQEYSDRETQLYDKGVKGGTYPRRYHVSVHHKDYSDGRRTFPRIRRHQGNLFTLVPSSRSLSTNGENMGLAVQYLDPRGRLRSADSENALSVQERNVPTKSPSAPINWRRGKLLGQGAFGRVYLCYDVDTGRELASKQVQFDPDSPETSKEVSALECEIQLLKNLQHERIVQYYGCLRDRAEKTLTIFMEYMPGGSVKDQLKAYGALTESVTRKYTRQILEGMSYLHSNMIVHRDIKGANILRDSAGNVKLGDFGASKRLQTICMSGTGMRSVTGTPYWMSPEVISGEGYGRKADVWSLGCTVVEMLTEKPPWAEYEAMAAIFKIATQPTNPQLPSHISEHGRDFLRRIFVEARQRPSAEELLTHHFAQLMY
# Method: as §1, §2, §3
# T3 sequence (P35968 20-1356): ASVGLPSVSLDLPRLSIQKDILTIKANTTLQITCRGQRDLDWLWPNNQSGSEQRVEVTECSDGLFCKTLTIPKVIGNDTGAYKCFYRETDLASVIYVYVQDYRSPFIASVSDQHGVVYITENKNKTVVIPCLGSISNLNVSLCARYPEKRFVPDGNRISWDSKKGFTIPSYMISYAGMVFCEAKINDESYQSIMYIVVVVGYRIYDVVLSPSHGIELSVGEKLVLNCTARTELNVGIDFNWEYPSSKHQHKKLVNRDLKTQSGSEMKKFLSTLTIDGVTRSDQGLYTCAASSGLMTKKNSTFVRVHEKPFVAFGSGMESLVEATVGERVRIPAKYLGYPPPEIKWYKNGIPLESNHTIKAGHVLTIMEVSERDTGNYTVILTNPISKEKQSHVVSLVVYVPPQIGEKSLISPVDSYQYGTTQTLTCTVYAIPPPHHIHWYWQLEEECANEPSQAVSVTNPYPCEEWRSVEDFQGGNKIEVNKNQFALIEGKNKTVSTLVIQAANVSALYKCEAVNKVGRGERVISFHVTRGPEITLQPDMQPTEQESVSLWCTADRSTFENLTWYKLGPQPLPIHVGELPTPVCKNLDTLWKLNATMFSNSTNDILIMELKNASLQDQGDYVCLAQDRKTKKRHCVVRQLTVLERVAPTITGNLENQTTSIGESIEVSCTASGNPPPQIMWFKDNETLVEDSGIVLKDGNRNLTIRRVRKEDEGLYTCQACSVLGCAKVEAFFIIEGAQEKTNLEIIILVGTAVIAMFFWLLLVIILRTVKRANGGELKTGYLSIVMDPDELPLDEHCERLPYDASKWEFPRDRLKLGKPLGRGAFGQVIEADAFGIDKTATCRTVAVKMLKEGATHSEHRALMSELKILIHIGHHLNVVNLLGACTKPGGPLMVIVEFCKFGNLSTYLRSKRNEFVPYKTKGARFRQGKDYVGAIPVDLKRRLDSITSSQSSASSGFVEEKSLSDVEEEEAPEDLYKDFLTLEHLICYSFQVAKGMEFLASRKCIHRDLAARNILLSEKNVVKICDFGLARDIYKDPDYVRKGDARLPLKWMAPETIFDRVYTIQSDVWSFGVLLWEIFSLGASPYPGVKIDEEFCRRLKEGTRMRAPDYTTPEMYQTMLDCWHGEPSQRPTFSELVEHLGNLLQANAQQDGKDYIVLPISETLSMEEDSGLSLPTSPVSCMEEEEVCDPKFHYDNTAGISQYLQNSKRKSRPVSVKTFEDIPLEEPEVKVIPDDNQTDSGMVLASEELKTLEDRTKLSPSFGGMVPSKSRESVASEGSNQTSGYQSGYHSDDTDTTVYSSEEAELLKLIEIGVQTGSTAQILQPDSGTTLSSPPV
# T2 sequence (P42685 whole entry): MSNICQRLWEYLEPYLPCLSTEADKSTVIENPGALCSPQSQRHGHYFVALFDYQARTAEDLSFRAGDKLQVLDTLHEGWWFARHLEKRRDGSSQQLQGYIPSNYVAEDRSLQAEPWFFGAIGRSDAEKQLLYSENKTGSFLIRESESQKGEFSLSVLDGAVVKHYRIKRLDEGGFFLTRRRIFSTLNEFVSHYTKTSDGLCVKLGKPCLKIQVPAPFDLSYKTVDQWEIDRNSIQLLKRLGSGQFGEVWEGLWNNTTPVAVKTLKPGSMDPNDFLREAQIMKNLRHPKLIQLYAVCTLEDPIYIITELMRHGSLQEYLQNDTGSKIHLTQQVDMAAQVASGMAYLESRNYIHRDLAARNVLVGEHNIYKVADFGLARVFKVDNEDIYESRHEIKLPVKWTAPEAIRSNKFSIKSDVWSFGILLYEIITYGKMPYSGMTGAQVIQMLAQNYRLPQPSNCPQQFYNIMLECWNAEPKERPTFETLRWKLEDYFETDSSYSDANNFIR
SMILES,inhibition at 1 µM (JAK3),inhibition at 1 µM (FRK),inhibition at 1 µM (VEGFR2),inhibition at 1 µM (ITK),inhibition at 1 µM (MEKK3),INHIBITORY EFFECT @ 1 uM: JAK3 (JAK3; 1 uM)
"COc1ccc(F)cc1C(=O)NCc1ccc(-c2nn([C@@H](C)C(F)(F)F)c(N)c2C(N)=O)cc1 [LOXO-305, pirtobrutinib]",< 50%,< 50%,< 50%,< 50%,< 50%,
"Cc1cccnc1[C@H]1CCC[C@@H](c2ncccc2C)N1CCN1CCN(C(=O)c2ccc(-c3cc4c(-c5cccc(NC(=O)c6ccccc6)c5C)ncnc4[nH]3)cc2)CC1 [Compound I-10, N-(3-(6-(4-(4-(2-((2R,6S)-2,6-bis(3-methylpyridin-2-yl)piperidin-1-yl)ethyl)piperazine-1-carbonyl)phenyl)-7H-pyrrolo[2,3-d]pyrimidin-4-yl)-2-methylphenyl)benzamide]",< 50%,< 50%,< 50%,< 50%,< 50%,
"C=CC(=O)N1CCC([C@@H]2CCNc3c(C(N)=O)c(-c4ccc(Oc5ccccc5)cc4)nn32)CC1 [Zanubrutinib, (7S)-2-(4-phenoxyphenyl)-7-(1-prop-2-enoylpiperidin-4-yl)-4,5,6,7-tetrahydropyrazolo[1,5-a]pyrimidine-3-carboxamide]",,50 to 69%,< 50%,< 50%,< 50%,+ (Below 50% Inhibition at 1 uM)
"O=C(c1ccc(Oc2ccccc2)cc1Cl)c1c[nH]c2ncnc(N[C@@H]3CC[C@@H](CO)OC3)c12 [ARQ-531, (2-chloro-4-phenoxyphenyl) (4-(((3R,6S)-6-(hydroxymethyl)tetrahydro-2H-pyran-3-yl)amino)-7H-pyrrolo[2,3-d]pyrimidin-5-yl) methanone]",50 to 69%,70 to 89%,,50 to 69%,50 to 69%,
